Results reported in patent US10723741B1, “DNA polymerase IIIC inhibitors and use thereof” (Acurx Pharmaceuticals, LLC, priority 2018, dated 2020).
In brackets after ≈: the same amount, converted by molar mass. Like-named read-outs stand apart in the source and are kept apart here.

What was measured:
Type in all cases: cell-based
[1] = tested on: Staphylococcus aureus NRS384 (MRSA); assay: Broth microdilution MIC, S. aureus NRS384 (MRSA); set-up: MIC NRS 384 (MRSA): unit not given here; conditions: broth microdilution, 37° C., 20 hours; for MIC: Staphylococcus aureus
In short: (§1)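 Two-fold dilutions from 64 to 0.0625 μg/ml final, 1% DMSO, were inoculated at ~5.0×10^5 cfu/ml in the strain's test medium and kept 20 h at 37 °C in ambient atmosphere. Colonies were grown on MHA, with S. pneumoniae on blood agar under 5% CO2.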

[2] = tested on: Enterococcus faecalis ATCC 29212; assay: Broth microdilution MIC, E. faecalis ATCC 29212; conditions: ATCC29212, broth microdilution, 37° C., 20 hours, read-out: MIC E. faecalis ATCC 29212
In short: as §1

[3] = tested on: Enterococcus faecium ATCC 700221 (VRE); assay: Broth microdilution MIC, E. faecium ATCC 700221 (VRE); set-up: MIC E. faecium ATCC 700221 (VRE): unit: ug/mL; conditions: broth microdilution, 37° C., 20 hours; for MIC: Enterococcus faecium
In short: as §1

[4] = tested on: Bacillus subtilis ATCC 6633; assay: Broth microdilution MIC, B. subtilis ATCC 6633; conditions: ATCC6633, broth microdilution, 37° C., 20 hours, read-out: MIC B. subtilis ATCC 6633
In short: as §1

[5] = tested on: Streptococcus pneumoniae ATCC 49619; assay: Broth microdilution MIC, S. pneumoniae ATCC 49619; conditions: ATCC49619, broth microdilution, 37° C., 20 hours, read-out: MIC S. pneumoniae ATCC 49619
In short: as §1

[6] = tested on: Staphylococcus aureus ATCC 29213 (MSSA); assay: Broth microdilution MIC, S. aureus ATCC 29213 (MSSA); conditions: broth microdilution, 37° C., 20 hours, read-out: MIC S. aureus ATCC 29213 (MSSA)
In short: as §1

[7] = tested on: Escherichia coli ATCC 25922; assay: Broth microdilution MIC, E. coli ATCC 25922 (MHIIB w & w/o 4 mM EDTA); conditions: broth microdilution, 37° C., 20 hours; for MIC: Escherichia coli, ATCC25922, without EDTA, read-out: MIC E. coli ATCC 25922; for MIC E. coli ATCC 25922 + 4 mM EDTA: with 4 mM EDTA
In short: as §1

[8] = read-out: MIC E. faecium ATCC 700221 (VRE)

SMILES	MIC ([1]; read-out: MIC NRS 384 (MRSA)) [µg/mL]	MIC [2] [µg/mL]	MIC [3, 8] [µg/mL]	MIC [4] [µg/mL]	MIC [5] [µg/mL]	MIC [6] [µg/mL]	MIC [7] [µg/mL]	MIC E. coli ATCC 25922 + 4 mM EDTA [7] [µg/mL]	MIC NRS 384 (MRSA) [1]	MIC E. faecium ATCC 700221 (VRE) [3]	MIC ([1]; MHIIB, read-out: MIC against S. aureus NRS 384 (MRSA)) [µg/mL]	MIC ([3]; MHIIB, read-out: MIC against E. faecium ATCC 700221 (VRE)) [µg/mL]
Cn1nc(C2C=CCO2)c2nc(NCc3ccc(Cl)c(Cl)c3)[nH]c(=O)c21 (centres unmarked) [Compound 46, 5-((3,4-dichlorobenzyl)amino)-3-(2,5-dihydrofuran-2-yl)-1-methyl-1H-pyrazolo[4,3-d]pyrimidin-7(6H)-one]	8 (≈ 20.4 µM)	16 (≈ 40.8 µM)	8 (≈ 20.4 µM)	4 (≈ 10.2 µM)	16 (≈ 40.8 µM)	4 (≈ 10.2 µM)	> 64	>64	–	–	–	–
Cn1nc(C2CCCO2)c2nc(NCc3ccc(Cl)c(Cl)c3)[nH]c(=O)c21 (centres unmarked) [Compound 47, 5-((3,4-dichlorobenzyl)amino)-1-methyl-3-(tetrahydrofuran-2-yl)-1H-pyrazolo[4,3-d]pyrimidin-7(6H)-one]	16 (≈ 40.6 µM)	> 64	16 (≈ 40.6 µM)	8 (≈ 20.3 µM)	32 (≈ 81.2 µM)	16 (≈ 40.6 µM)	> 64	>64	–	–	–	–
O=c1[nH]c(NCc2ccc(Cl)c(Cl)c2)nc2c(F)n[nH]c12 [Compound 54, 5-[(3,4-Dichlorophenyl)methylamino]-3-fluoro-1,6-dihydropyrazolo[4,3-d]pyrimidin-7-one]	8 (≈ 24.4 µM)	16 (≈ 48.8 µM)	4 (≈ 12.2 µM)	4 (≈ 12.2 µM)	32 (≈ 97.5 µM)	8 (≈ 24.4 µM)	> 64	>64	–	–	–	–
O=c1[nH]c(NCc2ccc(Cl)c(Cl)c2)nc2c(Cl)n[nH]c12 [Compound 55, 3-Chloro-5-[(3,4-dichlorophenyl)methylamino]-1,6-dihydropyrazolo[4,3-d]pyrimidin-7-one]	4 (≈ 11.6 µM)	8 (≈ 23.2 µM)	4 (≈ 11.6 µM)	2 (≈ 5.8 µM)	8 (≈ 23.2 µM)	4 (≈ 11.6 µM)	> 64	64	–	–	–	–
Cl.O=c1[nH]c(NCc2ccc(Cl)c(Cl)c2)nc2cnn(CCN3CCOCC3)c12 [Compound 57, 5-((3,4-dichlorobenzyl)amino)-1-(2-morpholinoethyl)-1H-pyrazolo[4,3-d]pyrimidin-7(6H)-one hydrochloride]	2	4	1	1	2	2	> 64	>64	–	–	–	–
CN1CCN(CCn2ncc3nc(NCc4ccc(Cl)c(Cl)c4)[nH]c(=O)c32)CC1 [Compound 58, 5-((3,4-Dichlorobenzyl)amino)-1-(2-(4-methylpiperazin-1-yl)ethyl)-1H-pyrazolo[4,3-d]pyrimidin-7(6H)-one]	8 (≈ 18.3 µM)	8 (≈ 18.3 µM)	4 (≈ 9.17 µM)	2 (≈ 4.58 µM)	4 (≈ 9.17 µM)	16 (≈ 36.7 µM)	> 64	>64	–	–	–	–
O=c1[nH]c(NCc2ccc(Cl)c(Cl)c2)nc2cnn(CCN3CCS(=O)(=O)CC3)c12 [Compound 59, 5-((3,4-Dichlorobenzyl)amino)-1-(2-(1,1-dioxidothiomorpholino)ethyl)-1H-pyrazolo[4,3-d]pyrimidin-7(6H)-one]	8 (≈ 17 µM)	8 (≈ 17 µM)	2 (≈ 4.24 µM)	4 (≈ 8.49 µM)	4 (≈ 8.49 µM)	8 (≈ 17 µM)	> 64	>64	–	–	–	–
CN1CCN(CCn2ncc3nc(NCc4ccc(Cl)c(Cl)c4)[nH]c(=O)c32)CC1=O [Compound 60, 5-((3,4-Dichlorobenzyl)amino)-1-(2-(4-methyl-3-oxopiperazin-1-yl)ethyl)-1H-pyrazolo[4,3-d]pyrimidin-7(6H)-one]	8 (≈ 17.8 µM)	8 (≈ 17.8 µM)	2 (≈ 4.44 µM)	4 (≈ 8.88 µM)	4 (≈ 8.88 µM)	8 (≈ 17.8 µM)	> 64	>64	–	–	–	–
CC(C)(C)NCCn1ncc2nc(NCc3ccc(Cl)c(Cl)c3)[nH]c(=O)c21 [Compound 62, 1-[2-(tert-Butylamino)ethyl]-5-[(3,4-dichlorophenyl)methylamino]-6H-pyrazolo[4,3-d]pyrimidin-7-one]	16 (≈ 39.1 µM)	8 (≈ 19.5 µM)	8 (≈ 19.5 µM)	4 (≈ 9.77 µM)	4 (≈ 9.77 µM)	16 (≈ 39.1 µM)	> 64	32	–	–	–	–

Further lines, results first:

MIC ([1]; read-out: MIC NRS 384 (MRSA)) [µg/mL]	MIC [2] [µg/mL]	MIC [3, 8] [µg/mL]	MIC [4] [µg/mL]	MIC [5] [µg/mL]	MIC [6] [µg/mL]	MIC [7] [µg/mL]	MIC E. coli ATCC 25922 + 4 mM EDTA [7] [µg/mL]	MIC NRS 384 (MRSA) [1]	MIC E. faecium ATCC 700221 (VRE) [3]	MIC ([1]; MHIIB, read-out: MIC against S. aureus NRS 384 (MRSA)) [µg/mL]	MIC ([3]; MHIIB, read-out: MIC against E. faecium ATCC 700221 (VRE)) [µg/mL]	SMILES
> 64	> 64	> 64	64 (≈ 162 µM)	64 (≈ 162 µM)	> 64	> 64	>64	–	–	–	–	CN(C)C(=O)c1nn(C)c2c(=O)[nH]c(NCc3ccc(Cl)c(Cl)c3)nc12 [Compound 43, 5-((3,4-Dichlorobenzyl)amino)-N,N, 1-trimethyl-7-oxo-6,7-dihydro-1H-pyrazolo[4,3-d]pyrimidine-3-carboxamide]
–	4 (≈ 11.5 µM)	–	2 (≈ 5.73 µM)	16 (≈ 45.8 µM)	4 (≈ 11.5 µM)	> 64	64	4/4	2/2	–	–	Cn1nc(C#N)c2nc(NCc3ccc(Cl)c(Cl)c3)[nH]c(=O)c21 [Compound 45, 5-((3,4-dichlorobenzyl)amino)-1-methyl-7-oxo-6,7-dihydro-1H-pyrazolo[4,3-d]pyrimidine-3-carbonitrile]
4 (≈ 10.9 µM)	16 (≈ 43.5 µM)	8 (≈ 21.7 µM)	4 (≈ 10.9 µM)	4 (≈ 10.9 µM)	8 (≈ 21.7 µM)	> 64	>64	–	–	–	–	Cn1nc(CCO)c2nc(NCc3ccc(Cl)c(Cl)c3)[nH]c(=O)c21 [Compound 48, 5-((3,4-dichlorobenzyl)amino)-3-(2-hydroxyethyl)-1-methyl-1H-pyrazolo[4,3-d]pyrimidin-7(6H)-one]
8 (≈ 20.2 µM)	> 64	16 (≈ 40.4 µM)	8 (≈ 20.2 µM)	16 (≈ 40.4 µM)	16 (≈ 40.4 µM)	> 64	>64	–	–	–	–	CCOCCc1nn(C)c2c(=O)[nH]c(NCc3ccc(Cl)c(Cl)c3)nc12 [Compound 49, 5-((3,4-dichlorobenzyl)amino)-3-(2-ethoxyethyl)-1-methyl-1H-pyrazolo[4,3-d]pyrimidin-7(6H)-one]
> 64	> 64	> 64	> 64	> 64	> 64	> 64	>64	–	–	–	–	O=c1[nH]c(NCc2ccc(Cl)c(Cl)c2)nc2c(-c3ncco3)nn(CCOCCO)c12 [Compound 50, 5-((3,4-dichlorobenzyl)amino)-1-(2-(2-hydroxyethoxy)ethyl)-3-(oxazol-2-yl)-1H-pyrazolo[4,3-d]pyrimidin-7(6H)-one]
2 (≈ 4.73 µM)	2 (≈ 4.73 µM)	0.5 (≈ 1.18 µM)	1 (≈ 2.36 µM)	2 (≈ 4.73 µM)	2 (≈ 4.73 µM)	> 64	>64	–	–	–	–	N#Cc1nn(CCOCCO)c2c(=O)[nH]c(NCc3ccc(Cl)c(Cl)c3)nc12 [Compound 51, 5-((3,4-dichlorobenzyl)amino)-1-(2-(2-hydroxyethoxy)ethyl)-7-oxo-6,7-dihydro-1H-pyrazolo[4,3-d]pyrimidine-3-carbonitrile]
4 (≈ 8.38 µM)	4 (≈ 8.38 µM)	2 (≈ 4.19 µM)	1 (≈ 2.1 µM)	16 (≈ 33.5 µM)	2 (≈ 4.19 µM)	> 64	>64	–	–	–	–	O=c1[nH]c(NCc2ccc(Cl)c(Cl)c2)nc2c(Br)nn(CCOCCO)c12 [Compound 52, 3-bromo-5-((3,4-dichlorobenzyl)amino)-1-(2-(2-hydroxyethoxy)ethyl)-1H-pyrazolo[4,3-d]pyrimidin-7(6H)-one]
0.5 (≈ 1.46 µM)	2 (≈ 5.85 µM)	0.5 (≈ 1.46 µM)	0.5 (≈ 1.46 µM)	2 (≈ 5.85 µM)	0.5 (≈ 1.46 µM)	> 64	64	–	–	≤ 1	≤ 1	Cn1nc(F)c2nc(NCc3ccc(Cl)c(Cl)c3)[nH]c(=O)c21 [Compound 53, 5-((3,4-dichlorobenzyl)amino)-3-fluoro-1-methyl-1H-pyrazolo[4,3-d]pyrimidin-7(6H)-one]
64 (≈ 174 µM)	32 (≈ 87.1 µM)	16 (≈ 43.6 µM)	8 (≈ 21.8 µM)	16 (≈ 43.6 µM)	64 (≈ 174 µM)	> 64	>64	–	–	–	–	CNCCn1ncc2nc(NCc3ccc(Cl)c(Cl)c3)[nH]c(=O)c21 [Compound 61, 5-((3,4-Dichlorobenzyl)amino)-1-(2-(methylamino)ethyl)-1H-pyrazolo[4,3-d]pyrimidin-7(6H)-one]
